Results as given in patent publication US20250282828A1, “PEPTIDES FOR THE TREATMENT OF RESPIRATORY INFECTIONS OF VIRAL ORIGIN” (CENTRO DE INGENIERÍA GENÉTICA Y BIOTECNOLOGÍA, priority 2020, published 2025).
Read-outs that look alike come from different tables or passages of the source. Positions of bridges follow the written chain, without caps; N, C: chain ends. Non-standard residues stand in square brackets, D forms with d. Residues, ends and D or L forms follow the SMILES beside them. No end group written: not given here.

What was measured:
[1] = tested on: SARS-CoV-2
[2] = tested on: Influenza A H1N1; format: cell-based; conditions: 50 μM; tracheo-bronchial HAE
[3] = tested on: SARS-CoV-2; remark: listed apart in the source
[4] = tested on: human bocavirus (HBoV); experiment: Human bocavirus replication in tracheal HAE (qPCR NS1 region); format: cell-based; conditions: 50 μM, 72 hours
[5] = tested on: AdV 7 Gomen strain; experiment: Adenovirus type 7 replication in bronchial HAE (qPCR); format: cell-based; conditions: 50 μM, 24 hours
[6] = tested on: herpes simplex virus type 1 (HSV-1); experiment: HSV-1 replication in primary explants of human nasal mucosa (qPCR); format: cell-based; conditions: 36 hours
Description: The replication of herpes simplex virus type 1 (HSV-1) was performed in primary explants of human nasal mucosa, according to Glorieux et al. (Glorieux et al. 2011, PLoS ONE, 6(7): e22160, doi: 10.1371/journal.pone.0022160). […] Afterwards, the cultures were washed and kept at 37° C. and 5% CO2 for 36 hours, in presence of the peptides in culture medium. The cultures were harvested, and HSV-1 was quantified by qPCR. The percentages of viral inhibition ranged from 70 to 92% in presence of the peptides (Table 5).

[7] = tested on: respiratory syncytial virus (RSV); experiment: Respiratory syncytial virus replication in bronchial HAE (RT-qPCR); format: cell-based; conditions: 50 μM, 10 days
[8] = tested on: SARS-CoV-2; remark: listed apart in the source
[9] = molecular target: T1, NS1-D2 (Dengue) (Dengue virus type 2, UniProt P29990); experiment: BIACORE surface plasmon resonance interaction with immobilized peptide; format: binding, Dengue virus 2
T1 construct: the non-structural protein 1 of the Dengue virus 2 (NS1-D2)
T1 sequence (P29990 776-1127 limits assumed): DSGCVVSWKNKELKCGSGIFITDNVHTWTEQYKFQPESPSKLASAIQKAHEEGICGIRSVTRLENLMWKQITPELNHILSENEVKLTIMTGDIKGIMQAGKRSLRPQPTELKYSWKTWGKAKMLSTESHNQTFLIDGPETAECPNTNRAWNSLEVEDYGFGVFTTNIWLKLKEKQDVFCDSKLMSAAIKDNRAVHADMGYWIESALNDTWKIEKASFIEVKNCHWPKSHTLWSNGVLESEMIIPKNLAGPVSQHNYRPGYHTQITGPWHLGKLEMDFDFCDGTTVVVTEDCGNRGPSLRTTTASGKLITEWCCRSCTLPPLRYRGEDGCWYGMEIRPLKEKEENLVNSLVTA

[10] = tested on: Dengue 2 virus; experiment: Dengue 2 virus replication in primary cultures of lung cells (PFU in VeroE6); format: cell-based; conditions: 48 hours
Description: The cultures were treated with the peptides for 2 or 24 hours, at concentrations of 0.01 to 100 μM before viral challenge. The medium was discarded and the cells were infected with Dengue 2 virus, at an MOI of 10 for 2 hours at 37° C. and 5% CO2. The virus was eliminated, a wash was then performed and the cultures were treated again with peptides in DMEM medium, and incubated for 48 hours at 37° C. and 5% CO2. Subsequently, the cultures were collected to assess viral performance on VeroE6 cells. For this, the cells were seeded in 24-well plates and when they reached confluence they were infected with serial 10-fold dilutions of the supernatants, incubated for 1 hour at 37° C. and 5% CO2. Next, a wash was carried out with PBS, and a layer of agar in 2× DMEM (1:1) added. The layer was allowed to solidify and incubated for 48 hours at 37° C. 5% CO2. The plates were stained with crystal violet, for the determination of the number of PFUs. The peptides inhibited between 68 and 88% of viral replication (Table 5).

[11] = tested on: capsid protein of the Influenza H1N1 virus; experiment: BIACORE surface plasmon resonance interaction with immobilized peptide; format: binding
[12] = molecular target: Protein N (SARS-CoV-2) (Severe acute respiratory syndrome coronavirus 2, UniProt P0DTC9); experiment: as above; format: binding; conditions: analyte 10-200 nM
[13] = molecular target: T2, Dengue 2 virus capsid protein (Dengue virus type 2, UniProt P29990); experiment: as above; format: binding
T2 construct: with the Dengue 2 virus capsid protein
T2 sequence (P29990 1-100 limits assumed): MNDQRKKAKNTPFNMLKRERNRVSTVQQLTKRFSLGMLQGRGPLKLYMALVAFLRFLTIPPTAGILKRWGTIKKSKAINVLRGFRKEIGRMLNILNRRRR

[14] = molecular target: T3, ZIKV E protein (Zika) (Zika virus, UniProt A0A024B7W1); experiment: as above; format: binding
T3 construct: the envelope protein of the Zika virus (ZIKV E)
T3 sequence (A0A024B7W1 291-794): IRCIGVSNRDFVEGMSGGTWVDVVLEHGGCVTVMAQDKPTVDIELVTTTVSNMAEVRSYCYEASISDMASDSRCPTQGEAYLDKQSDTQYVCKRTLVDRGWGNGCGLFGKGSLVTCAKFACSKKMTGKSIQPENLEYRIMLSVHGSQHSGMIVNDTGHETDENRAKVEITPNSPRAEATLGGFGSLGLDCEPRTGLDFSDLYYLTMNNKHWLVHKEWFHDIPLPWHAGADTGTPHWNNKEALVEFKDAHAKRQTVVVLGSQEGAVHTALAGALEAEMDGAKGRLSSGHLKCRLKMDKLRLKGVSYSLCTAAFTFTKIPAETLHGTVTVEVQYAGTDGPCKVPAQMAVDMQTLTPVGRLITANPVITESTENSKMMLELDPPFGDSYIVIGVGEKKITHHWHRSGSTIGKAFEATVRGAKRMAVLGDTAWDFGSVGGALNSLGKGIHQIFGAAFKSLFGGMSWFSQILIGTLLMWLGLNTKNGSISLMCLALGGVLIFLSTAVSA

[15] = tested on: Parainfluenza virus type 3 (HPIV3); format: cell-based; conditions: 50 μM; HAE, 3 days

CSCC[C@@H]1NC(=O)[C@H](Cc2c[nH]c3ccccc23)NC(=O)[C@@H](NC(=O)[C@H](C)NC(=O)[C@H](CCC(N)=O)NC(=O)[C@@H]2CCCN2C(=O)[C@@H]2CCCN2C(=O)[C@H](CCCNC(=N)N)NC(=O)[C@H](CCCNC(=N)N)NC(=O)[C@H](CCCNC(=N)N)NC(=O)[C@H](CCC(N)=O)NC(=O)[C@H](CCCNC(=N)N)NC(=O)[C@H](CCCNC(=N)N)NC(=O)[C@H](CCCCN)NC(=O)[C@H](CCCCN)NC(=O)[C@H](CCCNC(=N)N)NC(=O)CN)CSSC[C@@H](C(=O)O)NC(=O)[C@H]([C@@H](C)O)NC(=O)CNC(=O)[C@H](CC(C)C)NC(=O)[C@H](Cc2c[nH]cn2)NC(=O)[C@H](CCCNC(=N)N)NC(=O)[C@@H]2CCCN2C(=O)[C@H](CO)NC1=O [Peptide SEQ ID NO: 23] (H-GRKKRRQRRRPPQACWMSPRHLGTC-OH; disulfide 15-25; N-terminus and C-terminus assumed)
IC50 [1]: 3800 nM

CSCC[C@H](NC(=O)[C@H](CCC(N)=O)NC(=O)[C@@H](NC(=O)[C@@H](NC(=O)[C@H](CCCNC(=N)N)NC(C)=O)C(C)C)[C@@H](C)O)C(=O)N[C@H](CC(N)=O)C(=O)N[C@@H](CC(C)C)C(=O)N[C@@H](CC(N)=O)C(=O)N[C@@H](CC(=O)O)C(=O)N[C@@H](CCCNC(=N)N)C(=O)N[C@@H](CC(C)C)C(=O)N[C@@H](C)C(=O)N[C@@H](CO)C(=O)N[C@@H](CC(C)C)C(=O)N[C@@H](Cc1ccc(O)cc1)C(=O)N[C@@H](CC(=O)O)C(=O)N[C@@H](CCCCN)C(=O)N[C@H](C(=O)O)C(C)C [SEQ ID NO: 3] (Ac-RVTQM[dN]LNDRLASLYDKV-OH; C-terminus assumed)
Influenza A H1N1 Inhib. % [2]: 93%
Inhibition % ([3]; 96 h, 100 μM): 85.4%
Bocavirus HBoV-1 Inhib. % [4]: 80%
Adenovirus Ad7 Inhib. % [5]: 82%
Herpes simplex HSV-1 Inhib. % ([6]; 50 μM): 73%
Sincitial respiratory virus Inhib. % [7]: 87%

CSCC[C@H](NC(=O)[C@H](CCC(N)=O)NC(=O)[C@@H](NC(=O)[C@@H](NC(=O)[C@H](CCCNC(=N)N)NC(C)=O)C(C)C)[C@@H](C)O)C(=O)N[C@@H](CC(N)=O)C(=O)N[C@@H](CC(C)C)C(=O)N[C@H](CC(N)=O)C(=O)N[C@@H](CC(=O)O)C(=O)N[C@@H](CCCNC(=N)N)C(=O)N[C@@H](CC(C)C)C(=O)N[C@@H](C)C(=O)N[C@@H](CO)C(=O)N[C@@H](CC(C)C)C(=O)N[C@@H](Cc1ccc(O)cc1)C(=O)N[C@@H](CC(=O)O)C(=O)N[C@@H](CCCCN)C(=O)N[C@H](C(=O)O)C(C)C [SEQ ID NO: 4] (Ac-RVTQMNL[dN]DRLASLYDKV-OH; C-terminus assumed)
Inhibition % ([3]; 96 h, 100 μM): 92.4%
Bronchial HAE Inhibition % ([8]; 72 h, 100 μM): 85%
Nasal HAE Inhibition % ([8]; 72 h, 100 μM): 80%

CSCC[C@H](NC(=O)[C@H](CCC(N)=O)NC(=O)[C@@H](NC(=O)[C@@H](NC(=O)[C@H](CCCNC(=N)N)NC(C)=O)C(C)C)[C@@H](C)O)C(=O)N[C@@H](CC(N)=O)C(=O)N[C@@H](CC(C)C)C(=O)N[C@@H](CC(N)=O)C(=O)N[C@H](CC(=O)O)C(=O)N[C@@H](CCCNC(=N)N)C(=O)N[C@@H](CC(C)C)C(=O)N[C@@H](C)C(=O)N[C@@H](CO)C(=O)N[C@@H](CC(C)C)C(=O)N[C@@H](Cc1ccc(O)cc1)C(=O)N[C@@H](CC(=O)O)C(=O)N[C@@H](CCCCN)C(=O)N[C@H](C(=O)O)C(C)C [SEQ ID NO: 5] (Ac-RVTQMNLN[dD]RLASLYDKV-OH; C-terminus assumed)
Inhibition % ([3]; 96 h, 100 μM): 85.3%

Ac-RVTQMNLNDRLASLYDKV [SEQ ID NO: 2]
interaction [9]: showed interaction
Dengue 2 Inhib. % ([10]; 50 μM): 88%
Influenza A H1N1 Inhib. % [2]: 90%
Kd [11]: 24.3 nM
interaction [11]: showed interaction
Inhibition % ([3]; 96 h, 50 μM): 95.1%
Kd [12]: 523 nM
Kd [13]: 754 nM
Bronchial HAE Inhibition % ([8]; 72 h, 50 μM): 90%
Nasal HAE Inhibition % ([8]; 72 h, 50 μM): 80%
Sincitial respiratory virus Inhib. % [7]: 83%
Kd [14]: 18200 nM
interaction [14]: showed interaction
Parainfluenza Type 3 Inhib. % [15]: 89%

NDRLASLYDKV [SEQ ID NO: 14]
interaction [9]: showed interaction
Dengue 2 Inhib. % ([10]; 50 μM): 70%
Influenza A H1N1 Inhib. % [2]: 79%
Kd [11]: 4670 nM
interaction [11]: showed interaction
Inhibition % ([3]; 96 h, 50 μM): 83.2%
Kd [12]: 1140 nM
Kd [13]: 5910 nM
Sincitial respiratory virus Inhib. % [7]: 82%
Kd [14]: 3200 nM
interaction [14]: showed interaction

NLNDRLASLYDKV [SEQ ID NO: 15]
interaction [9]: showed interaction
Kd [11]: 189 nM
interaction [11]: showed interaction
Inhibition % ([3]; 96 h, 50 μM): 87.1%
Kd [12]: 7820 nM
Kd [13]: 1270 nM
Bronchial HAE Inhibition % ([8]; 72 h, 50 μM): 90%
Nasal HAE Inhibition % ([8]; 72 h, 50 μM): 86%
Adenovirus Ad7 Inhib. % [5]: 78%
Herpes simplex HSV-1 Inhib. % ([6]; 50 μM): 81%
Kd [14]: 62.4 nM
interaction [14]: showed interaction
Parainfluenza Type 3 Inhib. % [15]: 69%

RATQMNLNDRLASLYDKV [SEQ ID NO: 6]
Inhibition % ([3]; 96 h, 100 μM): 82.2%

RVTAMNLNDRLASLYDKV [SEQ ID NO: 7]
Dengue 2 Inhib. % ([10]; 100 μM): 87%
Influenza A H1N1 Inhib. % [2]: 70%
Inhibition % ([3]; 96 h, 100 μM): 92.4%
Adenovirus Ad7 Inhib. % [5]: 69%

RVTQANLNDRLASLYDKV [SEQ ID NO: 8]
Dengue 2 Inhib. % ([10]; 50 μM): 72%
Inhibition % ([3]; 96 h, 100 μM): 90.2%
Bocavirus HBoV-1 Inhib. % [4]: 87%
Bronchial HAE Inhibition % ([8]; 72 h, 100 μM): 92%
Nasal HAE Inhibition % ([8]; 72 h, 100 μM): 88%
Parainfluenza Type 3 Inhib. % [15]: 73%

RVTQMNANDRLASLYDKV [SEQ ID NO: 9]
Influenza A H1N1 Inhib. % [2]: 89%
Inhibition % ([3]; 96 h, 100 μM): 83.7%
Bocavirus HBoV-1 Inhib. % [4]: 75%
Adenovirus Ad7 Inhib. % [5]: 79%

RVTQMNLADRLASLYDKV [SEQ ID NO: 16]
Inhibition % ([3]; 96 h, 100 μM): 79.6%

RVTQMNLNARLASLYDKV [SEQ ID NO: 10]
Inhibition % ([3]; 96 h, 100 μM): 70.8%

RVTQMNLNDALASLYDKV [SEQ ID NO: 17]
Inhibition % ([3]; 96 h, 100 μM): 72.7%

RVTQMNLNDRAASLYDKV [SEQ ID NO: 21]
Inhibition % ([3]; 96 h, 100 μM): 25.5%
inhibition of SARS-CoV-2 in primary cultures of human airway epithelium [8]: ≤ 20%

RVTQMNLNDRLAALYDKV [SEQ ID NO: 18]
Inhibition % ([3]; 96 h, 100 μM): 69.2%

RVTQMNLNDRLASLYAKV [SEQ ID NO: 12]
Inhibition % ([3]; 96 h, 100 μM): 77.4%

RVTQMNLNDRLASLYDAV [SEQ ID NO: 13]
Inhibition % ([3]; 96 h, 100 μM): 90.5%
Bronchial HAE Inhibition % ([8]; 72 h, 50 μM): 89%
Nasal HAE Inhibition % ([8]; 72 h, 50 μM): 79%
Adenovirus Ad7 Inhib. % [5]: 76%
Herpes simplex HSV-1 Inhib. % ([6]; 50 μM): 78%
Sincitial respiratory virus Inhib. % [7]: 91%
Parainfluenza Type 3 Inhib. % [15]: 90%

RVTQMNLNDRLVSLYDKV [SEQ ID NO: 11]
Inhibition % ([3]; 96 h, 100 μM): 73.9%

SEQ ID NO: 19: synthetic peptide related to SEQ ID NO: 1, obtained by solid phase synthesis (RVTQMNLNDRLASLYDKV; Description of the Artificial Sequence synthetic peptide where N6 is a D amino acid)
Dengue 2 Inhib. % ([10]; 50 μM): 68%
Influenza A H1N1 Inhib. % [2]: 67%
Inhibition % ([3]; 50 µM): 91.8%
Bocavirus HBoV-1 Inhib. % [4]: 85%
Bronchial HAE Inhibition % ([8]; 100 µM): 86%
Nasal HAE Inhibition % ([8]; 100 µM): 82%
Sincitial respiratory virus Inhib. % [7]: 75%

SEQ ID NO: 20: synthetic peptide related to SEQ ID NO: 1, obtained by solid phase synthesis (RVTQMNLNDRLASLYDKV; Description of the Artificial Sequence synthetic peptide where N8 is a D amino acid)
Inhibition % ([3]; 50 µM): 69.8%
Bocavirus HBoV-1 Inhib. % [4]: 67%
Herpes simplex HSV-1 Inhib. % ([6]; 100 μM): 70%
Parainfluenza Type 3 Inhib. % [15]: 79%
